Results: ChEMBL document CHEMBL1201862, “PubChem BioAssay data set” (2004)
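Where inhibition never reached the appropriate level, the endpoint shown equals the highest concentration tested. Otherwise, values were interpolated linearly from a five-concentration, 48-hour dose response in 96-well plates. GI50 = concentration required for 50% inhibition of growth.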 Activity calls are given as the source filed them. No stated cut-off is given here; in the data, active = GI50 up to about 1.1 µM and inactive = higher.

Key:
Experiment in all cases: NCI tumour cell line growth inhibition, 48 h
SW-620 = system: SW-620
A549 = system: A549
HCC 2998 = system: HCC 2998
COLO 205 = system: COLO 205
SNB-78 = system: SNB-78
SR = system: SR
M19-MEL = system: M19-MEL
UO-31 = system: UO-31
NCI-H460 = system: NCI-H460
SNB-19 = system: SNB-19
OVCAR-5 = system: OVCAR-5
KM-20L2 = system: KM-20L2
786-0 = system: 786-0
TK-10 = system: TK-10
SF-268 = system: SF-268
NCI-H522 = system: NCI-H522
XF498 = system: XF498
MOLT-4 = system: MOLT-4
LOX IMVI = system: LOX IMVI
KM12 = system: KM12
OVCAR-8 = system: OVCAR-8
LXFL 529 = system: LXFL 529
HOP-62 = system: HOP-62
SK-MEL-28 = system: SK-MEL-28
RXF 393 = system: RXF 393
OVCAR-3 = system: OVCAR-3
IGROV-1 = system: IGROV-1
DLD-1 = system: DLD-1
NCI-H23 = system: NCI-H23
ACHN = system: ACHN
A498 = system: A498
K562 = system: K562
NCI-H226 = system: NCI-H226
UACC-257 = system: UACC-257
SF-295 = system: SF-295
RPMI-8226 = system: RPMI-8226
HL-60 = system: HL-60
SK-MEL-5 = system: SK-MEL-5
DMS-114 = system: DMS-114
SN12C = system: SN12C
EKVX = system: EKVX
OVCAR-4 = system: OVCAR-4
HCT-116 = system: HCT-116
CCRF-CEM = system: CCRF-CEM
HT-29 = system: HT-29
U-251 = system: U-251
HCT-15 = system: HCT-15
HOP-92 = system: HOP-92
SK-MEL-2 = system: SK-MEL-2
SNB-75 = system: SNB-75
UACC-62 = system: UACC-62
M14 = system: M14
SK-OV-3 = system: SK-OV-3
DMS-273 = system: DMS-273
CAKI-1 = system: CAKI-1
Malme-3M = system: Malme-3M
SF-539 = system: SF-539

Measured: GI50

CC(C)=CCOc1ccc(-c2coc3cc4c(c(O)c3c2=O)C=CC(C)(C)O4)cc1
21 µM: HCT-15
active: NCI-H522 0.129 µM | K562 0.389 µM | SK-MEL-5 0.207 µM
inactive: SW-620 > 100 µM | A549 32.9 µM | HCC 2998 83.6 µM | COLO 205 > 100 µM | SNB-78 59.3 µM | SR > 100 µM | M19-MEL 47.9 µM | UO-31 > 100 µM | NCI-H460 63.2 µM | SNB-19 56 µM | OVCAR-5 > 100 µM | KM-20L2 > 100 µM | 786-0 96.8 µM | TK-10 > 100 µM | SF-268 > 100 µM | XF498 15.9 µM | MOLT-4 > 100 µM | LOX IMVI 1.7 µM | KM12 > 100 µM | OVCAR-8 50.7 µM | LXFL 529 20.9 µM | HOP-62 > 100 µM | SK-MEL-28 91.4 µM | RXF 393 > 100 µM | OVCAR-3 2.13 µM | IGROV-1 21.1 µM | DLD-1 50.7 µM | NCI-H23 5.35 µM | ACHN > 100 µM | A498 14.9 µM | NCI-H226 > 100 µM | UACC-257 14.3 µM | SF-295 49.5 µM | RPMI-8226 27.3 µM | HL-60 > 100 µM | DMS-114 18.2 µM | SN12C > 100 µM | EKVX 5.22 µM | OVCAR-4 16.7 µM | HCT-116 6.9 µM | CCRF-CEM 43.5 µM | HT-29 > 100 µM | U-251 38.8 µM

O=c1n(CC2CS2)c2ccccc2n1CC1CS1 (stereo unspecified)
inactive: SW-620 > 10 µM | HCC 2998 82.8 µM | COLO 205 62.4 µM | SR 45.5 µM | M19-MEL 42.8 µM | HOP-92 42.3 µM | SK-MEL-2 28.9 µM | SF-268 57.7 µM | SNB-75 65.3 µM | NCI-H522 30.8 µM | XF498 > 100 µM | MOLT-4 18.8 µM | LOX IMVI 30.2 µM | KM12 35.3 µM | LXFL 529 31.2 µM | HOP-62 39.5 µM | OVCAR-3 43.8 µM | IGROV-1 39.2 µM | ACHN 45.7 µM | K562 33.8 µM | UACC-62 33.3 µM | M14 35.2 µM | SK-OV-3 > 100 µM | DMS-273 31.9 µM | CAKI-1 42.9 µM | RPMI-8226 27.2 µM | HL-60 39.2 µM | DMS-114 30.5 µM | Malme-3M 18.2 µM | SN12C 87.7 µM | EKVX > 100 µM | OVCAR-4 41.7 µM | HCT-116 25.1 µM | CCRF-CEM 21 µM
42.7 µM: HCT-15

CCOC(=O)c1oc2ccc(OC)c3c2c1CCC3
inactive: SW-620 > 100 µM | A549 > 100 µM | HCC 2998 > 100 µM | COLO 205 > 100 µM | SNB-78 > 100 µM | SR 37.9 µM | M19-MEL > 100 µM | UO-31 32.1 µM | HOP-92 41.6 µM | SK-MEL-2 > 100 µM | NCI-H460 > 100 µM | SNB-19 > 100 µM | OVCAR-5 44.7 µM | 786-0 > 100 µM | TK-10 83.8 µM | SF-268 > 100 µM | SNB-75 > 100 µM | NCI-H522 67.3 µM | XF498 > 100 µM | MOLT-4 26.1 µM | LOX IMVI > 100 µM | KM12 > 100 µM | OVCAR-8 > 100 µM | LXFL 529 65.6 µM | HOP-62 > 100 µM | SK-MEL-28 > 100 µM | RXF 393 70 µM | OVCAR-3 > 100 µM | IGROV-1 > 100 µM | DLD-1 64.9 µM | NCI-H23 59.6 µM | ACHN > 100 µM | A498 > 100 µM | K562 55 µM | UACC-62 > 100 µM | NCI-H226 > 100 µM | UACC-257 13.7 µM | M14 > 100 µM | SK-OV-3 > 100 µM | DMS-273 > 100 µM | SF-295 > 100 µM | RPMI-8226 > 100 µM | SF-539 > 100 µM | HL-60 > 100 µM | SK-MEL-5 84.7 µM | DMS-114 > 100 µM | Malme-3M > 100 µM | SN12C > 100 µM | EKVX > 100 µM | OVCAR-4 51.6 µM | CCRF-CEM 46.7 µM | HT-29 > 10 µM | U-251 > 100 µM
> 100 µM: HCT-15
